Patent US6531485B2, “Prostaglandin agonists” (priority 1997, dated 2003)

Assays:
[1] = tested on: 293S cells transfected with EP2; test: Kidney regeneration assay: BMP-7 expression by Northern blot in EP2 293S cells; assay type: cell-based, human; details: 10^-6M, RNA at 8, 16 and 24 hours
Method: (§1) Methods: 293S and EP2 293S cells are grown in Dulbecco's Modified Egale medium (DMEM, Gibco, BRL; Gaithersburg, Md.). […] Cells are harvested and RNA is extracted at 8, 16 and 24 hours. Northern blot analysis of total […] is carried out by probing the blots with ^32P-labeled BMP-7 probe. The blots are normalized for RNA loading by hybridization with ^32P-labeled 18s ribosomal RNA probe. […] Given the known role of BMP-7 in kidney regeneration and the ability of an prostaglandin agonist to induce BMP-7 expression in 293S kidney cells in a time and receptor specific manner indicates a role for prostaglandin agonist in kidney regeneration.

wild type 293S cells = test: Kidney regeneration assay: BMP-7 expression by Northern blot in wild type 293S cells; assay type: cell-based, human; details: parental 293S cell line, 10^-6M, RNA at 8, 16 and 24 hours
Method: as §1

## CCCCC[C@H](O)/C=C/[C@H]1[C@H](O)CC(=O)[C@@H]1C/C=C\CCCC(=O)O [PGE2, Prostaglandin E2]
[1]
  induction of expression of BMP-7: induce the expression of BMP-7 in the EP2 293S cells in a time dependent manner
Wild type 293S cells
  induction of expression of BMP-7: generally not observed
